{
  "source": "ChEMBL document CHEMBL1201862",
  "about": "“PubChem BioAssay data set” (2004)",
  "assay_in_all_cases": "DTP human tumour cell line panel, 48 h",
  "key": {"786-0": {"system": "786-0"}, "A498": {"system": "A498"}, "A549": {"system": "A549"}, "ACHN": {"system": "ACHN"}, "BT-549": {"system": "BT-549"}, "CAKI-1": {"system": "CAKI-1"}, "COLO 205": {"system": "COLO 205"}, "DU-145": {"system": "DU-145"}, "EKVX": {"system": "EKVX"}, "HCC 2998": {"system": "HCC 2998"}, "HCT-116": {"system": "HCT-116"}, "HCT-15": {"system": "HCT-15"}, "HL-60": {"system": "HL-60"}, "HOP-62": {"system": "HOP-62"}, "HOP-92": {"system": "HOP-92"}, "HT-29": {"system": "HT-29"}, "Hs-578T": {"system": "Hs-578T"}, "IGROV-1": {"system": "IGROV-1"}, "K562": {"system": "K562"}, "KM12": {"system": "KM12"}, "LOX IMVI": {"system": "LOX IMVI"}, "M14": {"system": "M14"}, "MCF7": {"system": "MCF7"}, "MDA-MB-231": {"system": "MDA-MB-231"}, "MDA-MB-435": {"system": "MDA-MB-435"}, "MDA-N": {"system": "MDA-N"}, "MOLT-4": {"system": "MOLT-4"}, "Malme-3M": {"system": "Malme-3M"}, "NCI-H226": {"system": "NCI-H226"}, "NCI-H23": {"system": "NCI-H23"}, "NCI-H460": {"system": "NCI-H460"}, "NCI-H522": {"system": "NCI-H522"}, "NCI/ADR-RES": {"system": "NCI/ADR-RES"}, "OVCAR-4": {"system": "OVCAR-4"}, "OVCAR-5": {"system": "OVCAR-5"}, "OVCAR-8": {"system": "OVCAR-8"}, "PC-3": {"system": "PC-3"}, "RPMI-8226": {"system": "RPMI-8226"}, "RXF 393": {"system": "RXF 393"}, "SF-268": {"system": "SF-268"}, "SF-295": {"system": "SF-295"}, "SF-539": {"system": "SF-539"}, "SK-MEL-28": {"system": "SK-MEL-28"}, "SK-MEL-2": {"system": "SK-MEL-2"}, "SK-MEL-5": {"system": "SK-MEL-5"}, "SK-OV-3": {"system": "SK-OV-3"}, "SN12C": {"system": "SN12C"}, "SNB-19": {"system": "SNB-19"}, "SNB-75": {"system": "SNB-75"}, "SR": {"system": "SR"}, "SW-620": {"system": "SW-620"}, "T47D": {"system": "T47D"}, "TK-10": {"system": "TK-10"}, "U-251": {"system": "U-251"}, "UACC-257": {"system": "UACC-257"}, "UACC-62": {"system": "UACC-62"}, "UO-31": {"system": "UO-31"}},
  "note": "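48-hour exposure; five concentrations; linearly interpolated endpoints. Abbreviation: GI50, concentration required for 50% inhibition of growth.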 The source made the active and inactive calls. No stated cut-off is given here; in the data, active = GI50 up to about 1.1 µM and inactive = higher.",
  "data": [
    {"compound": "CCN(CC)C(=S)SNc1ccc(S(N)(=O)=O)cc1", "values": [
      {"measurement": "GI50", "setting": "786-0", "value": "29.9 µM (inactive)"},
      {"measurement": "GI50", "setting": "A498", "value": "> 100 µM (inactive)"},
      {"measurement": "GI50", "setting": "A549", "value": "74.6 µM (inactive)"},
      {"measurement": "GI50", "setting": "ACHN", "value": "45.1 µM (inactive)"},
      {"measurement": "GI50", "setting": "BT-549", "value": "67.8 µM (inactive)"},
      {"measurement": "GI50", "setting": "CAKI-1", "value": "36.8 µM (inactive)"},
      {"measurement": "GI50", "setting": "COLO 205", "value": "68.7 µM (inactive)"},
      {"measurement": "GI50", "setting": "DU-145", "value": "> 92.9 µM (inactive)"},
      {"measurement": "GI50", "setting": "EKVX", "value": "> 100 µM (inactive)"},
      {"measurement": "GI50", "setting": "HCC 2998", "value": "> 100 µM (inactive)"},
      {"measurement": "GI50", "setting": "HCT-116", "value": "47.3 µM (inactive)"},
      {"measurement": "GI50", "setting": "HCT-15", "value": "> 77.4", "unit": "µM"},
      {"measurement": "GI50", "setting": "HL-60", "value": "64 nM (active)"},
      {"measurement": "GI50", "setting": "HOP-62", "value": "69.8 µM (inactive)"},
      {"measurement": "GI50", "setting": "HOP-92", "value": "> 56.2 µM (inactive)"},
      {"measurement": "GI50", "setting": "HT-29", "value": "24.6 µM (inactive)"},
      {"measurement": "GI50", "setting": "Hs-578T", "value": "> 100 µM (inactive)"},
      {"measurement": "GI50", "setting": "IGROV-1", "value": "2.11 µM (inactive)"},
      {"measurement": "GI50", "setting": "K562", "value": "> 100 µM (inactive)"},
      {"measurement": "GI50", "setting": "KM12", "value": "> 71.6 µM (inactive)"},
      {"measurement": "GI50", "setting": "LOX IMVI", "value": "38.9 µM (inactive)"},
      {"measurement": "GI50", "setting": "M14", "value": "24.5 µM (inactive)"},
      {"measurement": "GI50", "setting": "MCF7", "value": "38.3 nM (active)"},
      {"measurement": "GI50", "setting": "MDA-MB-231", "value": "60.5 µM (inactive)"},
      {"measurement": "GI50", "setting": "MDA-MB-435", "value": "> 57.7 µM (inactive)"},
      {"measurement": "GI50", "setting": "MDA-N", "value": "69.3 µM (inactive)"},
      {"measurement": "GI50", "setting": "MOLT-4", "value": "789 nM (active)"},
      {"measurement": "GI50", "setting": "Malme-3M", "value": "42.1 µM (inactive)"},
      {"measurement": "GI50", "setting": "NCI-H226", "value": "> 100 µM (inactive)"},
      {"measurement": "GI50", "setting": "NCI-H23", "value": "> 100 µM (inactive)"},
      {"measurement": "GI50", "setting": "NCI-H460", "value": "38.7 µM (inactive)"},
      {"measurement": "GI50", "setting": "NCI-H522", "value": "75.5 nM (active)"},
      {"measurement": "GI50", "setting": "NCI/ADR-RES", "value": "> 83.6 µM (inactive)"},
      {"measurement": "GI50", "setting": "OVCAR-4", "value": "> 83 µM (inactive)"},
      {"measurement": "GI50", "setting": "OVCAR-5", "value": "28.4 µM (inactive)"},
      {"measurement": "GI50", "setting": "OVCAR-8", "value": "23.3 µM (inactive)"},
      {"measurement": "GI50", "setting": "PC-3", "value": "47.8 µM (inactive)"},
      {"measurement": "GI50", "setting": "RPMI-8226", "value": "20.2 µM (inactive)"},
      {"measurement": "GI50", "setting": "RXF 393", "value": "44.4 µM (inactive)"},
      {"measurement": "GI50", "setting": "SF-268", "value": "> 75.7 µM (inactive)"},
      {"measurement": "GI50", "setting": "SF-295", "value": "> 66.5 µM (inactive)"},
      {"measurement": "GI50", "setting": "SF-539", "value": "> 76.6 µM (inactive)"},
      {"measurement": "GI50", "setting": "SK-MEL-28", "value": "33.4 µM (inactive)"},
      {"measurement": "GI50", "setting": "SK-MEL-2", "value": "> 63.1 µM (inactive)"},
      {"measurement": "GI50", "setting": "SK-MEL-5", "value": "30.5 µM (inactive)"},
      {"measurement": "GI50", "setting": "SK-OV-3", "value": "> 100 µM (inactive)"},
      {"measurement": "GI50", "setting": "SN12C", "value": "68.1 µM (inactive)"},
      {"measurement": "GI50", "setting": "SNB-19", "value": "> 83.4 µM (inactive)"},
      {"measurement": "GI50", "setting": "SNB-75", "value": "> 72.9 µM (inactive)"},
      {"measurement": "GI50", "setting": "SR", "value": "33.2 µM (inactive)"},
      {"measurement": "GI50", "setting": "SW-620", "value": "13.7 µM (inactive)"},
      {"measurement": "GI50", "setting": "T47D", "value": "91.6 µM (inactive)"},
      {"measurement": "GI50", "setting": "TK-10", "value": "> 100 µM (inactive)"},
      {"measurement": "GI50", "setting": "U-251", "value": "50.4 µM (inactive)"},
      {"measurement": "GI50", "setting": "UACC-257", "value": "> 100 µM (inactive)"},
      {"measurement": "GI50", "setting": "UACC-62", "value": "> 100 µM (inactive)"},
      {"measurement": "GI50", "setting": "UO-31", "value": "33.2 µM (inactive)"}
    ]}
  ]
}
